Assay results as given in a melting point compilation (Tetko et al.; mined from patent text by program, amines drawn as free bases though some values may be those of a salt).

melting point [°C]	Structure (SMILES)
119 to 120	CCN(CC)CCOCCC1CCN(C(=O)N2c3ccccc3C(=O)Nc3cccnc32)CC1
> 310	CCNC(=O)Nc1cnc2ccc(-c3ccc(N)c(OC)c3)nc2n1
177 to 179	O=C1N[C@H](Cc2ccc(C(F)(F)F)o2)[C@H](c2ccc(F)cc2)O1 (racemic)
211 to 212	Cc1nc(-c2ccc(Cl)cc2)c(CCC(=O)O)o1
91 to 93	CCCCCCCCCCCCCCCCNc1ccc(C(=O)OCC(C)O)cc1 (configuration not stated)
112 to 115	COCCOC(=O)COc1cc(F)ccc1C(=O)NCc1cccc([N+](=O)[O-])c1
90 to 92	CC1(c2ccccc2)CC(=O)N(c2ccncc2)C1=O (configuration not stated)
113 to 114	CCSc1nc(Nc2ccc(F)cc2F)c(C(=O)OC)cc1F
84 to 87	CCCc1c(OCCOc2ccccc2C(=O)OC)ccc(C(C)=O)c1O
140	CN(C)CCCC(C#N)(c1ccc(Cl)cc1)c1ccc(-n2ncc(=O)[nH]c2=O)cc1Cl (configuration not stated)
101 to 102	COc1ccc(OC)c2c1CCOC2CCl (configuration not stated)
256	Cc1nc(Nc2ccc(F)cc2)nc(O)c1C
96	OCC1COC2(CCN(CCc3ccccc3)CC2)O1 (configuration not stated)
125 to 127	CC1(c2ccc(N)cc2F)CNC1=O (configuration not stated)
86	CCOCCOc1cc(-n2nc(C)c(Cl)c2C)c(F)cc1C#N
100 to 102	O=C(NCCc1cccs1)c1cc(Cl)cc(Cl)c1
143 to 145	C[C@H](NC(=O)OC(C)(C)C)C(=O)N1CCC[C@H]1C(=O)N1CCC[C@H]1C(=O)OCc1ccccc1
217 to 221	CCCOc1ccc(S(C)(=O)=O)cc1C(=O)Nc1c(CC)nn(CC2CCCN2C)c1C(N)=O (configuration not stated)
159 to 160	CCCc1[nH]c2cc(C(=O)OC)ccc2c1C(=O)C1CCC1
195 to 198	Clc1ncc(CN2CC3(COc4cc5c(cc43)OCO5)c3ccccc32)s1 (configuration not stated)
260 to 263	CCOC(=O)c1cn(C2CC2)c2c(C)c(F)c(F)c([N+](=O)[O-])c2c1=O
197 to 200	Oc1ccc(-c2noc(C3CC3)c2-c2ccccc2)cc1
230 to 232	Cc1[nH]cnc1CC1CCc2c(c3ccccc3n2C)C1=O (single isomer, unassigned; (+))

melting point [°C]	Structure (SMILES)
86 to 91	Cc1oc2c(Br)cc(C3CCN(Cc4ccccc4)CC3)cc2c1C
184 to 185	CCc1nc2c(n1C(CC)CC)C(=O)N(C)CN2c1ccc(OC)cc1Cl
142 to 143	COc1c(C)c(C)c(OC)c(C(CCCC(=O)O)c2ccccc2)c1C (configuration not stated)
147 to 148	Cn1nnnc1CC(c1ccccc1)c1ccccc1
217 to 219	COCCc1sc2ncnc(N)c2c1-c1ccc(NC(=O)Nc2ccccc2C)cc1
74.8	CCC1=CN2CC(c3ccc(Br)cc3)N=C2S1 (configuration not stated)
187	O=C(O)c1cc(C(=O)C(F)(F)F)cc2c1OC(c1ccccc1)(c1ccccc1)O2
87 to 89	O=C(NCCCn1cncn1)c1ccc(Cl)nc1
110 to 113	CC1(CBr)OC(C(Br)(Br)Br)OC1=O (configuration not stated)
99 to 100	CC(C)Cn1c(=O)n(C)c(=O)c2c(SCCCO)c(Cc3cccc(F)c3)sc21
177	COC(=O)c1ccccc1S(=O)(=O)N(c1ccn(-c2nc(C)cc(C)n2)n1)S(=O)(=O)c1ccccc1C(=O)OC
101 to 103	COC(=O)c1cc(OC)c(OCCCN)cc1[N+](=O)[O-]
228 to 230	CNc1nc(NCc2ccc(NC(=O)c3ccc(F)cc3)cc2)c2c(C)cccc2n1
130 to 131	O=C(Nc1ccc(Cl)c(C(F)(F)F)c1)c1ccccc1
206	c1ccc2c(c1)C[C@H]1CSC(=Nc3cccc4ccncc34)N1C2
82 to 83	Cc1ccc(C)c(OCCCC(C)(C)C(=O)Nc2c(F)cc(F)cc2F)c1
84.6 to 85.7	CC(C)(C)OC(=O)N1CCC(S(=O)(=O)Cl)CC1
134 to 138	CC(=O)c1cc2c(Sc3ccc(C)cc3)cncc2s1
61 to 64	CCCc1c(OCCCCCCc2cc(C)c(O)c(O)c2C)ccc(C(=O)OCC)c1O
264 to 265	Cc1cc(-c2csc(-c3ccc(C(=O)O)cc3)n2)c(C)o1
85 to 86	COc1ccnc(N2CCN(C(=O)c3ccco3)CC2)n1
87 to 110	CSC(C)=NOC(=O)N(C)SN(C)C(=O)ON=C(C)C(C)=NOC(=O)N(C)SN(C)C(=O)ON=C(SC)C(=O)N(C)C
87 to 88	O=C(NN1CCCC1=O)C(O)=CC(=O)c1cc(Cc2ccc(F)cc2F)cn(Cc2ccc(F)cc2)c1=O

melting point [°C]	Structure (SMILES)
118 to 119	Cn1c(SC(C)(CO)c2ccccc2)cc2ccccc21 (configuration not stated)
228 to 230	Cc1ccc(C(=O)NCC(N)=O)cc1-n1c(C)cc(OCc2ccccc2CNC(=O)Nc2cc(C(C)(C)C)nn2-c2ccc(O)c(Cl)c2)c(Cl)c1=O
126	CN(C)C(=O)Nc1cc(C(F)(F)F)on1
86 to 87	CCOC(=O)CN(C)S(=O)(=O)c1c(C(=O)OC)sc2cc(C)ccc12
66 to 68	COc1cccc2c1CC(C#N)CC2 (configuration not stated)
185 to 186	O=c1ccn(CC(O)CO)c(Cc2ccccc2)c1O (configuration not stated)
225 to 229	CC(C)c1cccc(C(C)C)c1NC(=O)C1CC2=C(CCCCCCCCCC2)C1=O (configuration not stated)
117 to 119	CCOC(=O)c1c(C)nc2ccc(NCCCN3CCC(OC(c4ccccc4)c4ccccc4)CC3)nn12
107 to 108	OC(c1ccc(Oc2ccc(Cl)cc2Cl)cc1)C(F)n1cncn1 (configuration not stated)
171 to 176	CS(=O)(=O)c1ccc(C(=O)Nc2ccc(-n3nc(C4CC4)cc3C3CC3)cc2)cc1
134 to 136	Cc1cn(C2CC2)c(=O)nc1NS(=O)(=O)c1ccc(N)cc1
66 to 70	CCCCCCCCCCCCN1C(=O)CC(c2cc(C(C)(C)C)c(O)c(C(C)(C)C)c2)C1=O (configuration not stated)
230 to 231	Oc1ccc2c(c1)COc1c-2cc2ccc(O)cc2c1Cl
106 to 107	COc1ccc(C2CC(=O)N(Cc3ccc4ccc(Cl)cc4n3)C2)cc1OC1CCCC1 (configuration not stated)
118 to 119	COc1nc(C)cnc1NS(=O)(=O)c1cccnc1-c1ccc(CC(C)CO)cc1 (configuration not stated)
248 to 249	CCOC(=O)N1Cc2[nH]c3ccc(F)cc3c2C1
184 to 186	CCc1nc(OC)c(NC(=O)N2CCN(c3cc(F)cc(F)c3)CC2)cc1C(=O)Nc1cc(CO)cc(Nc2c3ccccc3nc3ccccc23)c1
115	CC(=O)OC1CSC(Oc2cncc(-c3ccc(F)cc3Cl)c2)C(OC(C)=O)C1OC(C)=O (configuration not stated)
175 to 177	CC(C)(C)c1ccc2oc(C(O)COc3ccc(C(=O)O)cc3)cc2c1 (configuration not stated)
207	COc1cc(-n2nc(C(F)(F)F)cc2-c2ccc(-c3ccco3)cc2)ccc1S(N)(=O)=O
223 to 224	COc1cc2c(cc1OC)C(=O)CS[C@@H](C(=O)O)C2
86	Cc1ccc(-c2cc(F)cc3c2NC(CN)CO3)c(C(F)(F)F)c1 (configuration not stated)
82 to 84	CCOC(=O)Nn1c(C)ccc1C(=O)c1ccccc1Cl

melting point [°C]	Structure (SMILES)
333 to 336	C[C@@H](Nc1ncnc2[nH]c(-c3ccc(C#N)cc3)cc12)c1ccccc1
254 to 257	CS(=O)(=O)c1ccc(-c2[nH]c3ccc(Cl)cc3c2-c2cccc(Cl)c2)cc1
225	COc1ccc(C=CC(=O)c2ccc(O)c(CC(=O)O)c2)cc1OC
268 to 270	Fc1ccc(-c2ccc(N3CCCN(c4ccc(-c5ccc(F)cc5)cn4)CC3)nc2)cc1
120 to 121	Cn1nc(-c2nc(C=O)c(Cl)cc2F)c(Cl)c1OC(F)F
89 to 90	CC(CN=C(c1ccccc1)c1ccccc1)N=C(c1ccccc1)c1ccccc1 (configuration not stated)
83.5 to 86.2	CCOCCNC(=O)C(c1ccccc1)c1ccccc1
180 to 182	CSc1nc(N)c(N)c(N)n1
315 to 317	O=c1oc(=O)c2ccc3c4ccccc4sc4ccc1c2c43
101 to 104	CC(C)(S)CNC(=O)CCCC(=O)O
114	NCC(=O)N[C@@H]1CN2C(=O)N(c3cc(Cl)nc(Cl)c3)C(=O)[C@@]2(Cc2ccc(OC(F)(F)F)cc2)C1
140 to 141	CN1CCN(c2nc(N)c3c(n2)CCCS3)CC1
166	COc1ccc(-c2cc(=O)c3c(O)cc(OCC4=COC(C)(C)O4)cc3o2)cc1OC
75 to 82	CC(C)(C)C(=O)c1ccc(C2(C)OCCO2)cc1
90 to 92	CC(C)(C)OC(=O)COc1coc(CO)cc1=O
97 to 99	O=C(CS(=O)(=O)c1ccccc1)NC1CCN(Cc2ccc(Cl)c(Cl)c2)CC1
74 to 76	O=C(CCCCCCn1ccc2ccc(NC(=O)OC3CCCC3)cc21)NS(=O)(=O)c1ccccc1
92 to 93	COCCCn1nnnc1-c1cc(Br)c(OCc2ccccc2)cc1OCc1ccccc1
143 to 144	CN(O)C(=O)N1CCC(C(c2ccccc2)c2ccccc2)CC1
52 to 60	COC(=O)Cc1ccc(OCCNC(=O)C2Cc3ccccc3N2S(=O)(=O)c2ccc(-c3cccc(C(F)(F)F)c3)cc2)c(OC)c1 (configuration not stated)
43	CCCC1CCC(C2(N=C=S)C=CC(CC)=CC2)CC1 (configuration not stated)
209 to 211	COC(=O)c1sc2c(c1N=C1CCCN1C)c1ccccc1c(=O)n2-c1ccccc1C
129 to 130	COC(=O)c1ccc2c(ccn2Cc2cccc([N+](=O)[O-])c2)c1

Structure (SMILES)	melting point [°C]
O=C(NC1N=C(c2ccccc2F)c2ccccc2NC1=O)c1cc2ccccc2[nH]1 (racemic)	290 to 291
CN1CCC2(CC1)c1ccccc1Sc1c(O)cccc12	180 to 182
NCCNC(=O)CN1CCC(O)C1=O (configuration not stated)	110 to 112
O=C(CCNC(=O)[C@H](Cc1ccc(-c2ccccc2)cc1)NCP(=O)(O)Oc1ccccc1)OCc1ccccc1	243 to 244
Cc1nnc2n1-c1ccc(C#C[Si](C)(C)C)cc1C(c1ccccc1F)=NC2	218 to 219
